In ChEMBL document CHEMBL1201862, “PubChem BioAssay data set” (2004):
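Growth conditions: 96-well plates. Treatment: test compound, 48 hours, 5 concentrations. Analysis: linear interpolation between bracketing concentrations; unreached endpoints set to highest concentration. The concentration for 50% growth inhibition is given as GI50.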 The source made the active and inactive calls. No stated cut-off is given here; in the data, active = GI50 up to about 1.1 µM and inactive = higher.

Legend:
Test in all cases: growth of human tumour cells (NCI), 48 h
786-0 = test system: 786-0
A549 = test system: A549
EKVX = test system: EKVX
HOP-62 = test system: HOP-62
HOP-92 = test system: HOP-92
IGROV-1 = test system: IGROV-1
K562 = test system: K562
KM12 = test system: KM12
LOX IMVI = test system: LOX IMVI
NCI-H226 = test system: NCI-H226
NCI-H23 = test system: NCI-H23
RXF 393 = test system: RXF 393
SF-268 = test system: SF-268
SK-MEL-28 = test system: SK-MEL-28
UACC-62 = test system: UACC-62
MCF7 = test system: MCF7
MDA-N = test system: MDA-N
T47D = test system: T47D
MDA-MB-435 = test system: MDA-MB-435
Hs-578T = test system: Hs-578T

Measured: GI50

Oc1ccc(-c2c3ccccc3c(-c3ccc(O)cc3)c3ccccc23)cc1
inactive: 786-0 > 100 µM | A549 > 100 µM | EKVX > 100 µM | HOP-62 > 100 µM | HOP-92 > 100 µM | IGROV-1 > 100 µM | K562 > 100 µM | KM12 > 100 µM | LOX IMVI 60.5 µM | NCI-H226 > 100 µM | NCI-H23 > 100 µM | RXF 393 > 100 µM | SF-268 > 100 µM | SK-MEL-28 > 100 µM | UACC-62 41 µM

CCOC(=O)CSc1nnc(C(Sc2nc(-c3ccccc3)c(-c3ccccc3)[nH]2)C(C)C)n1-c1ccccc1 (centres undefined)
inactive: 786-0 16 µM | A549 19.2 µM | EKVX 21.2 µM | HOP-62 > 10 µM | HOP-92 > 10 µM | IGROV-1 > 10 µM | K562 24.7 µM | KM12 17.7 µM | LOX IMVI 13.7 µM | MCF7 34.7 µM | MDA-N 30.4 µM | NCI-H226 17.1 µM | NCI-H23 > 10 µM | RXF 393 26.2 µM | SF-268 17.9 µM | SK-MEL-28 18.2 µM | T47D 28.3 µM | UACC-62 > 10 µM

Cc1cc(OP2(=O)NCc3ncccc3O2)ccc1Cl (centres undefined)
inactive: 786-0 > 100 µM | A549 > 100 µM | EKVX > 100 µM | HOP-62 > 100 µM | HOP-92 > 100 µM | IGROV-1 > 100 µM | K562 84.5 µM | KM12 58.5 µM | LOX IMVI > 100 µM | MCF7 > 100 µM | MDA-MB-435 > 100 µM | MDA-N > 100 µM | NCI-H226 > 100 µM | NCI-H23 > 100 µM | RXF 393 > 100 µM | SK-MEL-28 > 100 µM | T47D > 100 µM | UACC-62 > 100 µM

C(=N\Cc1ccccc1)/c1ccccc1-c1ccccc1/C=N/Cc1ccccc1
inactive: 786-0 > 10 µM | A549 > 10 µM | EKVX > 10 µM | HOP-62 > 10 µM | HOP-92 > 10 µM | IGROV-1 > 7.46 µM | K562 3.13 µM | KM12 > 10 µM | LOX IMVI 5.42 µM | MCF7 3.82 µM | MDA-MB-435 > 10 µM | MDA-N 5.33 µM | NCI-H226 > 10 µM | NCI-H23 > 8.67 µM | RXF 393 > 10 µM | SF-268 > 10 µM | SK-MEL-28 > 7.57 µM | T47D 4.99 µM | UACC-62 > 7.23 µM

Cc1ccc(C)c(NC(=O)C(=O)C2C(=O)C3=C(CC2(C)C)Nc2ccccc2S3)c1 (centres undefined)
inactive: 786-0 61.8 µM | A549 > 100 µM | EKVX 73.5 µM | HOP-62 31.6 µM | HOP-92 52.1 µM | Hs-578T 69.2 µM | IGROV-1 69.7 µM | KM12 > 100 µM | LOX IMVI > 100 µM | MCF7 > 100 µM | MDA-MB-435 > 100 µM | MDA-N > 100 µM | NCI-H226 58.1 µM | NCI-H23 > 100 µM | RXF 393 60.5 µM | SF-268 62.7 µM | SK-MEL-28 > 100 µM | UACC-62 > 100 µM

CCOC(=O)Cc1csc(N/C=C2/C(=O)Oc3ccccc3C2=O)n1
inactive: 786-0 26.4 µM | A549 34.2 µM | EKVX 35.8 µM | HOP-62 20.9 µM | HOP-92 11.7 µM | Hs-578T 22 µM | IGROV-1 19.1 µM | KM12 27.8 µM | LOX IMVI 25.6 µM | MCF7 40.8 µM | MDA-MB-435 23.9 µM | NCI-H226 22.6 µM | NCI-H23 22.8 µM | RXF 393 14.7 µM | SF-268 24.8 µM | SK-MEL-28 25.1 µM | UACC-62 13.5 µM

CCN(CC)CCNc1ccc(/N=N/c2ccc(S(N)(=O)=O)cc2)c2ccccc12
inactive: 786-0 4.62 µM | A549 4.99 µM | EKVX 19 µM | HOP-62 6.73 µM | HOP-92 14.9 µM | Hs-578T 15.5 µM | IGROV-1 13.1 µM | K562 3.13 µM | KM12 6.01 µM | LOX IMVI 2.65 µM | MCF7 6.73 µM | MDA-MB-435 7.35 µM | NCI-H226 23.6 µM | NCI-H23 23.2 µM | RXF 393 3.61 µM | SF-268 10.1 µM | SK-MEL-28 11.5 µM | T47D 2.55 µM | UACC-62 8.61 µM
